In patent publication US8148431B2, “Osteogenesis promoter containing β-cryptoxanthin as the active ingredient” (Kemin Health, L.C., priority 2002, dated 2012):
Marks after values point to notes of the source that are not given here.

Experiments:
[1] = test system: metaphysis tissue of the femur (cancellous bone); experiment: Bone alkaline phosphatase activity in cultured femoral metaphysis tissue pieces; assay type: cell-based, Wistar male rats; settings: for Bone alkaline phosphatase activity: metaphysis tissue, mean ± SE
Experimental: (§1) The femurs were extracted from rats (Wistar male rats; 4 to 5 weeks old) (purchased from Japan SLC Co., Ltd. and fed with solid Oriental yeast (MF)) under anesthesia with ether under a germfree condition. The femurs were each washed with 0.25 M sucrose solution, and then divided into the diaphysis (cortical bone) and metaphysis (cancellous bone). The bone tissue pieces were cultured in a culture medium (Dulbecco's modified culture medium containing 5% of glucose; serum-free medium) containing. β-cryptoxanthin, etc. at […] in an incubator filled with 5% CO2-95% air for 48 hours. β-cryptoxanthin used was “β-cryptoxanthin” of Extrasynthase Co., cycloheximide used was “Cycloheximide” of Sigma Co. Ltd., β-carotene was “β-carotene” of Sigma ? , xanthine was “Xanthine” of Sigma Co, Ltd., parathormone was “Parathormone” of Sigma Co. Ltd. and prostaglandin E2 was “Prostaglandin E2” of Sigma Co. Ltd. In the control, only the culture medium was used without β-cryptoxanthin or the like.
(§2) The expression level of alkaline phosphatase, which is the most important enzyme for the acceleration of the calcification of bones, was examined. The tissue pieces cultured in the incubator were washed in 0.25 M sucrose solution, then pulverized in 3 ml of 65 mM barbital buffer (pH 7-4) and treated with ultrasonic waves. The resultant liquid was centrifuged. The supernatant, as the enzyme solution, was determined by a method of Walter ad Schutt in Method of Enzymatic Analysis, Vol. 1-2, p. 856, Academic Press, New York, 1965). Namely, this method was carried out as follows: p-nitrophenylphosphoric acid was used as the substrate. 0.05 ml of the enzyme solution was added to 2 ml of diethanolamine buffer (pH 9.8). After the incubation at 37° C. for 30 minutes, 10 ml of 0.05 N NaOH was added to the mixture. The absorbance (405 nm) was determined with a spectrophotometer to determine bone alkaline phosphatase activity of a bone remedy or a compound known to be effective for the bones.
(§3) The bone component-increasing effect of β-cryptoxanthin was examined. The diaphysis and metaphysis tissue of the femur was cultured in the above-described culture medium containing β-cryptoxanthin ([…]) for 48 hours. Calcium level in the bone tissue, alkaline phosphatase activity (enzyme for accelerating the bone calcification) and the amount of deoxyribonucleic acid (DNA; index of number of cells in the bone tissue) were determined by the same methods as in Example 1. In each test group, the determination vas conducted 6 to 8 times and the results were represented by the average value and the standard error. The significant difference was determined by Student's t-test. The result was compared with that of the control. When P value was not higher than 0.01 (**) or not higher than 0.05 (*), the results were statistically significant.

[2] = test system: rats, femoral diaphysis tissue; experiment: Oral administration to rats: bone DNA level in diaphysis tissue; assay type: in vivo, Wistar male rats; settings: for Bone DNA level: diaphysis tissue
Experimental: DNA level was determined as an index of the number of cells in the bone tissue. After the culture in an incubator, the tissue pieces were washed with 0.25 M sucrose solution and then the wet weight of them was determined. They were pulverized in 4 ml of 0.1 N NaOH. After the osmosis at 4° C. for 24 hours, the liquid mixture was centrifuged. The supernatant was taken as the sample and determined by a method of Ceriotti et al. (J. Biol. Chem., 241; 34-77, 1951). Namely, 1 ml of concentrated hydrochloric acid and 1 ml of 0.04% indole solution were added to 2 ml of the sample and then the resultant mixture was heated to 100° C. in boiling water. After quenching followed by the extraction with 4 ml of chloroform, the chloroform layer was taken to determine bone DNA level with a spectrophotometer (490 nm).
A solution of β-cryptoxanthin in corn oil having one of three kinds of concentration (10, 25 and 50 μg/ml corn oil) was orally administered to rats (Wistar male rats; 4 to 5 weeks old) in an amount/100 g body weight with a probe once a day for 7 days. The rats were sacrificed 24 hours after the final administration. The femurs were excised. The muscles, etc. were taken out and each femur was divided into diaphysis and metaphysis to determine the bone components.
Tests were conducted to examine whether the bone components are increased by the oral administration of β-cryptoxanthin to rats or not. β-cryptoxanthin was administered for 7 days (10, 25 or 50 μg/100 g body weight/day) and then calcium level in the bone tissue, determination of alkaline phosphatase activity (enzyme for the acceleration of the calcification of bones) and the amount of deoxyribonucleic acid (DNA: index of the number of the cells in the bone tissue) were determined by the same methods as those in Example 1. In each test group, the determination was conducted 6 times and the results were represented by the average value and the standard error. The significant difference was determined by Student's t-test. The result was compared with that of the control. When P value was not higher than 0.01 (*) as compared with the control, the results were statistically significant.

[3] = test system: diaphysis tissue of the femur; experiment: Bone resorption (PTH or prostaglandin E2): bone calcium level in cultured diaphysis tissue; assay type: cell-based, Wistar male rats
Experimental: as §1
Bone calcium level in the bone tissue was determined. After the culture in the incubator, the tissue pieces were washed with 0.25 M sucrose solution and dried and then the bone was weighed. Then concentrated nitric acid was added to the tissue pieces. After the incineration at 120° C. for 12 hours, the bone calcium level was determined with an atomic absorption photometer (“Perkin-Elmer 303” of Perkin-Elmer Co.).
The bone mineral dissolution-inhibiting effect of β-cryptoxanthin was examined. […] PTH also has a pathophysiologic role on the expression of osteoporosis caused by the aging. It is known that prostaglandin E2 also causes physiologic bone mineral dissolution. The diaphysis or metaphysis tissue of the femur was cultured in the presence of 10^−7 M PTH or 10^−5 M prostaglandin E2 for 48 hours and then calcium level in the bone tissue was determined. In another experiment, the culture was conducted in the same manner as that described above in the coexistence of them and β-cryptoxanthin (10^−8 M to 10^−6 M) and then calcium level in the bone tissue was determined. In each test group, the determination was conducted 6 to 8 times and the results were represented by the average value and the standard error. The significant difference was determined by Student's t-test. The result was compared with that of the control. When P value was not higher than 0.01 (*) as compared with the control or it is not higher than 0.1 (#) as compared with that of prostaglandin E2, the results were statistically significant.

[4] = test system: diaphysis tissue of the femur (cortical bone); experiment: Bone alkaline phosphatase activity in cultured femoral diaphysis tissue pieces; assay type: cell-based, Wistar male rats; settings: for Bone alkaline phosphatase activity: diaphysis tissue, mean ± SE
Experimental: as §1, §2, §3

[5] = Table 2 (protein synthesis inhibitor experiment), 10^−6 M (each agent), n=6
[6] = β-cryptoxanthin 10^−6 M with cycloheximide

## CC1=C(/C=C/C(C)=C/C=C/C(C)=C/C=C/C=C(C)/C=C/C=C(C)/C=C/C2=C(C)C[C@@H](O)CC2(C)C)C(C)(C)CCC1 [β-cryptoxanthin]
[1]; 10^−7 to 10^−4 M (so in the source), 48 h culture, vs control
  Effect on the enzymatic (alkaline phosphatase) activity in the metaphysis (in words): increase
[1]; [5]
  Bone alkaline phosphatase activity: 1168.2 ± 30.1* nmol/min/mg protein
[1]; 10^−5 M, 48 h culture
  Bone alkaline phosphatase activity: 1229.5 ± 40.9** nmol/min/mg protein
[1]; 10^−6 M, 48 h culture
  Bone alkaline phosphatase activity: 1150.9 ± 26.8** nmol/min/mg protein
[1]; 10^−7 M, 48 h culture
  Bone alkaline phosphatase activity: 945.2 ± 5.4** nmol/min/mg protein
[1]; 10^−8 M, 48 h culture
  Bone alkaline phosphatase activity: 918.4 ± 4.3 nmol/min/mg protein
[1]; [6]
  Bone alkaline phosphatase activity in metaphysis tissue increased by β-cryptoxanthin: change in the presence of cycloheximide (in words): significantly lowered
[2]; 25 or 50 μg/100 g body weight/day, 7 days
  Effect on DNA in the bone tissue, diaphysis, after oral administration (in words): significantly increased
[2]; oral 10 μg/100 g body weight/day for 7 days
  Bone DNA level: 1.95 ± 0.18 mg/g bone wet weight
[2]; oral 25 μg/100 g body weight/day for 7 days
  Bone DNA level: 3.01 ± 0.23* mg/g bone wet weight
[2]; oral 50 μg/100 g body weight/day for 7 days
  Bone DNA level: 2.53 ± 0.20* mg/g bone wet weight
[3]; diaphysis tissue, β-cryptoxanthin 10^−5 to 10^−6 M (so in the source) with prostaglandin E2 10^−5 M
  Control of prostaglandin E2-caused reduction of calcium level in the bone tissue (in words): completely controlled
[3]; β-cryptoxanthin 10^−8 to 10^−6 M in the presence of PTH
  Control of PTH-caused reduction of calcium level in the diaphysis tissue (in words): significantly controlled
[4]; 10^−7 to 10^−5 M, 48 h culture, vs control
  Effect on alkaline phosphatase activity in the diaphysis (in words): significantly increased
[4]; [5]
  Bone alkaline phosphatase activity: 691.5 ± 11.2* nmol/min/mg protein
[4]; 10^−5 M, 48 h culture
  Bone alkaline phosphatase activity: 644.6 ± 15.2** nmol/min/mg protein
[4]; 10^−6 M, 48 h culture
  Bone alkaline phosphatase activity: 684.0 ± 17.7** nmol/min/mg protein
[4]; 10^−7 M, 48 h culture
  Bone alkaline phosphatase activity: 604.2 ± 9.6* nmol/min/mg protein
[4]; 10^−8 M, 48 h culture
  Bone alkaline phosphatase activity: 568.5 ± 9.5 nmol/min/mg protein
[4]; [6]
  Bone alkaline phosphatase activity in diaphysis tissue increased by β-cryptoxanthin: change in the presence of cycloheximide (in words): significantly lowered
